Assay results published in patent US4528287A, “6-Fluoro-1, 4-dihydro-4-oxo-7-substituted piperazinylquinoline-3-carboxylic acids and the method for preparing the same” (priority 1983, dated 1985).
≈ marks a conversion by molar mass, not a printed value. Read-outs that look alike come from different tables or passages of the source.

How the values were obtained:
[1] = test system: Bacillus subtilis ATCC6633; test: MIC, twofold agar dilution; type: cell-based; details: Gram +, 10^6 cells/ml, 18 hrs, 37° C., read-out: Minimum inhibitory concentration (MIC)
Method: (§1) Minimum inhibitory concentrations (MIC) were determined by the twofold agar dilution method (Chemotherapy, 29(1), 76(1981)). Overnight cultures in Mueller-Hinton broth were suspended by buffered saline gelatine. One loopful of the bacterial suspension (10^6 or 10^8 colony-forming units/ml) was incubated onto the test compound-containing plates. The plates were incubated for 18 hrs. at 37° C. The MIC was the lowest concentration of the drug that inhibited visible growth.

[2] = test system: Enterobacter aerogenes ATCC13048; test: MIC, twofold agar dilution; type: cell-based; details: Klebsiella aerogenes, Gram -, 10^6 cells/ml, 18 hrs, 37° C., read-out: Minimum inhibitory concentration (MIC)
Method: as §1

[3] = test system: Enterobacter cloaceas 963; test: MIC, twofold agar dilution; type: cell-based; details: Gram -, 10^6 cells/ml, 18 hrs, 37° C., read-out: Minimum inhibitory concentration (MIC)
Method: as §1

[4] = test system: Escherichia coli K-12 C600; test: MIC, twofold agar dilution; type: cell-based; details: K12C600, Gram -, 10^6 cells/ml, 18 hrs, 37° C., read-out: Minimum inhibitory concentration (MIC)
Method: as §1

[5] = test system: Escherichia coli NIHJ-JC-2; test: MIC, twofold agar dilution; type: cell-based; details: NIHJJC2, Gram -, 10^6 cells/ml, 18 hrs, 37° C., read-out: Minimum inhibitory concentration (MIC)
Method: as §1

[6] = test system: Klebsiella pneumoniae PCI-602; test: MIC, twofold agar dilution; type: cell-based; details: read-out: Minimum inhibitory concentration (MIC)
Method: as §1

[7] = test system: Micrococcus luteus ATCC9341; test: MIC, twofold agar dilution; type: cell-based; details: Gram +, 10^6 cells/ml, 18 hrs, 37° C., read-out: Minimum inhibitory concentration (MIC)
Method: as §1

[8] = test system: Proteus mirabilis IFO3849; test: MIC, twofold agar dilution; type: cell-based; details: Gram -, 10^6 cells/ml, 18 hrs, 37° C., read-out: Minimum inhibitory concentration (MIC)
Method: as §1

Proteus morganii IFO3848 = test: MIC, twofold agar dilution; type: cell-based; details: Morganella morganii, Gram -, 10^6 cells/ml, 18 hrs, 37° C., read-out: Minimum inhibitory concentration (MIC)
Method: as §1

Proteus rettgeri IFO3850 = test: MIC, twofold agar dilution; type: cell-based; details: Providencia rettgeri, Gram -, 10^6 cells/ml, 18 hrs, 37° C., read-out: Minimum inhibitory concentration (MIC)
Method: as §1

Proteus vulgalis HX-19 = test: MIC, twofold agar dilution; type: cell-based; details: Gram -; 10^6 cells/ml; 18 hrs, 37° C.; read-out: Minimum inhibitory concentration (MIC)
Method: as §1

Proteus vulgalis OX-19 = test: MIC, twofold agar dilution; type: cell-based; details: Gram -; 10^6 cells/ml; 18 hrs, 37° C.; read-out: Minimum inhibitory concentration (MIC)
Method: as §1

[9] = test system: Pseudomonas aeruginosa ATCC9027; test: MIC, twofold agar dilution; type: cell-based; details: Gram -, 10^6 cells/ml, 18 hrs, 37° C., read-out: Minimum inhibitory concentration (MIC)
Method: as §1

[10] = test system: Pseudomonas aeruginosa IFO3445; test: MIC, twofold agar dilution; type: cell-based; details: Gram -, 10^6 cells/ml, 18 hrs, 37° C., read-out: Minimum inhibitory concentration (MIC)
Method: as §1

[11] = test system: Pseudomonas aeruginosa NCTC10490; test: MIC, twofold agar dilution; type: cell-based; details: Gram -, 10^6 cells/ml, 18 hrs, 37° C., read-out: Minimum inhibitory concentration (MIC)
Method: as §1

[12] = test system: Pseudomonas aeruginosa PAO7; test: MIC, twofold agar dilution; type: cell-based; details: Gram -, 10^6 cells/ml, 18 hrs, 37° C., read-out: Minimum inhibitory concentration (MIC)
Method: as §1

[13] = test system: Salmonella enteritidis G14; test: MIC, twofold agar dilution; type: cell-based; details: Salmonella enterica, Gram -, 10^6 cells/ml, 18 hrs, 37° C., read-out: Minimum inhibitory concentration (MIC)
Method: as §1

[14] = test system: Salmonella paratyphi 1015; test: MIC, twofold agar dilution; type: cell-based; details: Salmonella enterica, 18 h, read-out: Minimum inhibitory concentration (MIC)
Method: as §1

[15] = test system: Salmonella schottmulleri 0006; test: MIC, twofold agar dilution; type: cell-based; details: Gram -, 10^6 cells/ml, 18 hrs, 37° C., read-out: Minimum inhibitory concentration (MIC)
Method: as §1

Salmonella typhi 901 = test: MIC, twofold agar dilution; type: cell-based; details: Salmonella enterica, 18 h, read-out: Minimum inhibitory concentration (MIC)
Method: as §1

[16] = test system: Salmonella typhimurium IID 971; test: MIC, twofold agar dilution; type: cell-based; details: Salmonella enterica; Gram -; 10^6 cells/ml; 18 hrs, 37° C.; read-out: Minimum inhibitory concentration (MIC)
Method: as §1

[17] = test system: Serratia marcescens IAM1184; test: MIC, twofold agar dilution; type: cell-based; details: Gram -, 10^6 cells/ml, 18 hrs, 37° C., read-out: Minimum inhibitory concentration (MIC)
Method: as §1

[18] = test system: Staphylococcus aureus FAD208PJC-1; test: MIC, twofold agar dilution; type: cell-based; details: FAD208PJC1, Gram +, 10^6 cells/ml, 18 hrs, 37° C., read-out: Minimum inhibitory concentration (MIC)
Method: as §1

[19] = test system: Staphylococcus aureus MS-353; test: MIC, twofold agar dilution; type: cell-based; details: MS353, Gram +, 10^6 cells/ml, 18 hrs, 37° C., read-out: Minimum inhibitory concentration (MIC)
Method: as §1

[20] = test system: Staphylococcus aureus Terajima; test: MIC, twofold agar dilution; type: cell-based; details: Gram +, 10^6 cells/ml, 18 hrs, 37° C., read-out: Minimum inhibitory concentration (MIC)
Method: as §1

[21] = test system: Streptococcus pyogenes Cook; test: MIC, twofold agar dilution; type: cell-based; details: Gram +, 10^6 cells/ml, 18 hrs, 37° C., read-out: Minimum inhibitory concentration (MIC)
Method: as §1

[22] = Urinary excretion in rats after oral dosing (bioassay with Escherichia coli NIHJ-JC-2); type: in vivo, SD strain); details: rat, male SD rats, 20 mg/Kg per os, fasted 24 hr; for concentration at 6 h: urine 0-6 hr, read-out: Drug Concentration in Urine 0-6 (hr); for dose excreted at 24 h: urine 0-24 hr, read-out: Rate of Urinary Excretion 0-24 (hr); for concentration at 24 h: urine 6-24 hr, read-out: Drug Concentration in Urine 6-24 (hr)
Method: Male rats of SD strain, weighing 180-210 g, were used 8 animals at a group. Test compounds suspended in 0.5% carboxymethyl cellulose were administered per os to 24 hr-fasted rats at dose of 20 mg/Kg. Urine was pooled from 0 to 6 hrs. and 6 to 24 hrs, and urinary excretion was measured by bioassay using Escherichia coli NIHJ-JC-2.
The assay method employed was the cup-plate method using
Escherichia coli NIHJ-JC-2. Urine was appropriately diluted with 1/15M phosphate buffer pH7.0, before assay if necessary. Standard calibration lines were made in 1/15M phosphate buffer pH7.0.

in vivo = details: mouse, male ddY mice, 10 days
Method: Male mice of ddY strain, 4 weeks old, were used with 10 animals at a group. Test compounds suspended in 0.5% carboxymethyl cellulose were administered per os (p.o.) in mice. In the case of intraveneous (i.v.) administration, test compounds were solved in 0.1N-HCl solution and neutralized with 0.1N-NaOH solution.

[23] = iv, i.v., read-out: LD50 i.v. (95% Confidence Limit)
[24] = PCI602, Gram -, 10^6 cells/ml, 18 hrs, 37° C.

| Structure (SMILES) | MIC [1] | MIC [2] | MIC [3] | MIC [4] | MIC [5] | MIC [7] | MIC [8] | MIC (Proteus morganii IFO3848) | MIC (Proteus rettgeri IFO3850) | MIC (Proteus vulgalis HX-19) | MIC (Proteus vulgalis OX-19) | MIC [9] | MIC [10] | MIC [11] | MIC [12] | MIC [13] | MIC [14] | MIC [15] | MIC (Salmonella typhi 901) | MIC [16] | also measured |
| --- | --- | --- | --- | --- | --- | --- | --- | --- | --- | --- | --- | --- | --- | --- | --- | --- | --- | --- | --- | --- | --- |
| CCn1cc(C(=O)O)c(=O)c2cc(F)c(N3CCNC(C)C3)c(F)c21 (stereo not shown) [Example 4, 1-Ethyl-6,8-difluoro-1,4-dihydro-7-(3-methyl-1-piperazinyl)-4-oxoquinoline-3-carboxylic acid] | 0.1 µg/mL (≈ 0.285 µM) | 0.1 µg/mL (≈ 0.285 µM) | 0.1 µg/mL (≈ 0.285 µM) | 0.05 µg/mL (≈ 0.142 µM) | 0.05 µg/mL (≈ 0.142 µM) | 6.25 µg/mL (≈ 17.8 µM) | 0.2 µg/mL (≈ 0.569 µM) | 0.025 µg/mL (≈ 0.0712 µM) | 0.05 µg/mL (≈ 0.142 µM) | 0.025 µg/mL (≈ 0.0712 µM) | 0.05 µg/mL (≈ 0.142 µM) | 0.05 µg/mL (≈ 0.142 µM) | 0.78 µg/mL (≈ 2.22 µM) | 0.78 µg/mL (≈ 2.22 µM) | 1.56 µg/mL (≈ 4.44 µM) | 0.05 µg/mL (≈ 0.142 µM) | 0.025 µg/mL (≈ 0.0712 µM) | 0.025 µg/mL (≈ 0.0712 µM) | 0.0125 µg/mL (≈ 0.0356 µM) | 0.05 µg/mL (≈ 0.142 µM) | MIC ([6]; PCI602, 18 h): 0.0125 µg/mL (≈ 0.0356 µM); MIC [17]: 0.1 µg/mL (≈ 0.285 µM); MIC [18]: 0.38 µg/mL (≈ 1.08 µM); MIC [19]: 0.78 µg/mL (≈ 2.22 µM); MIC [20]: 0.78 µg/mL (≈ 2.22 µM); MIC [21]: 3.13 µg/mL (≈ 8.91 µM); concentration at 6 h [22]: 659 µg/mL; dose excreted at 24 h [22]: 75%; concentration at 24 h [22]: 87 µg/mL; LD50 at 240 h (in vivo; [23]): 246 mg/kg; LD50 at 240 h (in vivo; po, p.o., read-out: LD50 p.o.): > 4000 mg/kg |
| CCn1cc(C(=O)O)c(=O)c2cc(F)c(N3CCNC(C)C3)cc21 (stereo not shown) [Example 1, 1-Ethyl-6-fluoro-1,4-dihydro-7-(3-methyl-1-piperazinyl)-4-oxoquinoline-3-carboxylic acid] | 0.1 µg/mL (≈ 0.3 µM) | 0.1 µg/mL (≈ 0.3 µM) | 0.1 µg/mL (≈ 0.3 µM) | 0.1 µg/mL (≈ 0.3 µM) | 0.1 µg/mL (≈ 0.3 µM) | 25 µg/mL (≈ 75 µM) | 0.39 µg/mL (≈ 1.17 µM) | 0.025 µg/mL (≈ 0.075 µM) | 0.1 µg/mL (≈ 0.3 µM) | 0.025 µg/mL (≈ 0.075 µM) | 0.05 µg/mL (≈ 0.15 µM) | 0.1 µg/mL (≈ 0.3 µM) | 0.78 µg/mL (≈ 2.34 µM) | 0.39 µg/mL (≈ 1.17 µM) | 0.78 µg/mL (≈ 2.34 µM) | 0.1 µg/mL (≈ 0.3 µM) | 0.0125 µg/mL (≈ 0.0375 µM) | 0.025 µg/mL (≈ 0.075 µM) | 0.05 µg/mL (≈ 0.15 µM) | 0.1 µg/mL (≈ 0.3 µM) | MIC [6, 24]: 0.025 µg/mL (≈ 0.075 µM); MIC [17]: 0.2 µg/mL (≈ 0.6 µM); MIC [18]: 0.2 µg/mL (≈ 0.6 µM); MIC [19]: 0.39 µg/mL (≈ 1.17 µM); MIC [20]: 0.39 µg/mL (≈ 1.17 µM); MIC [21]: 3.13 µg/mL (≈ 9.39 µM); concentration at 6 h [22]: 514 µg/mL; dose excreted at 24 h [22]: 30%; concentration at 24 h [22]: 28 µg/mL; LD50 at 240 h (in vivo; [23]): 348 mg/kg; LD50 at 240 h (in vivo; po, p.o., read-out: LD50 p.o.): > 4000 mg/kg |
| CCn1cc(C(=O)O)c(=O)c2cc(F)c(N3CCNCC3)cc21 [Reference Drug, norfloxacin, reference compound] | 0.1 µg/mL (≈ 0.313 µM) | 0.1 µg/mL (≈ 0.313 µM) | 0.05 µg/mL (≈ 0.157 µM) | 0.05 µg/mL (≈ 0.157 µM) | 0.05 µg/mL (≈ 0.157 µM) | 6.25 µg/mL (≈ 19.6 µM) | 0.1 µg/mL (≈ 0.313 µM) | 0.025 µg/mL (≈ 0.0783 µM) | 0.05 µg/mL (≈ 0.157 µM) | 0.025 µg/mL (≈ 0.0783 µM) | 0.05 µg/mL (≈ 0.157 µM) | 0.05 µg/mL (≈ 0.157 µM) | 0.78 µg/mL (≈ 2.44 µM) | 0.78 µg/mL (≈ 2.44 µM) | 0.39 µg/mL (≈ 1.22 µM) | 0.05 µg/mL (≈ 0.157 µM) | 0.025 µg/mL (≈ 0.0783 µM) | 0.025 µg/mL (≈ 0.0783 µM) | 0.025 µg/mL (≈ 0.0783 µM) | 0.05 µg/mL (≈ 0.157 µM) | MIC [6, 24]: 0.025 µg/mL (≈ 0.0783 µM); MIC [17]: 0.1 µg/mL (≈ 0.313 µM); MIC [18]: 0.2 µg/mL (≈ 0.626 µM); MIC [19]: 6.25 µg/mL (≈ 19.6 µM); MIC [20]: 0.39 µg/mL (≈ 1.22 µM); MIC [21]: 1.56 µg/mL (≈ 4.89 µM) |
